The source made the active and inactive calls. The calls are words filed in the database; no cut-off is given here.
Legend:
[1] = target: MAP/microtubule affinity-regulating kinase 3 (Homo sapiens) (UniProt P27448); conditions: Compound concentration 1000.0 nM
[2] = target: D(1A) dopamine receptor (Homo sapiens) (UniProt P21728); conditions: Compound concentration 10.0 uM
[3] = target: Alpha-1B adrenergic receptor (Homo sapiens) (UniProt P35368); conditions: Compound concentration 10.0 uM
[4] = target: Sodium-dependent serotonin transporter (Homo sapiens) (UniProt P31645); test: 5HTTRANS/HU Eurofins-Panlabs selectivity data (BI); conditions: Compound concentration 10.0 uM
[5] = target: Adenosine receptor A1 (Homo sapiens) (UniProt P30542); test: A1/HU Eurofins-Panlabs selectivity data (BI); conditions: Compound concentration 10.0 uM
[6] = target: T1, Alpha-1D adrenergic receptor (Homo sapiens) (UniProt P25100); test: ALPHA1D/H Eurofins-Panlabs selectivity data (BI); conditions: Compound concentration 10.0 uM
T1 sequence (whole entry): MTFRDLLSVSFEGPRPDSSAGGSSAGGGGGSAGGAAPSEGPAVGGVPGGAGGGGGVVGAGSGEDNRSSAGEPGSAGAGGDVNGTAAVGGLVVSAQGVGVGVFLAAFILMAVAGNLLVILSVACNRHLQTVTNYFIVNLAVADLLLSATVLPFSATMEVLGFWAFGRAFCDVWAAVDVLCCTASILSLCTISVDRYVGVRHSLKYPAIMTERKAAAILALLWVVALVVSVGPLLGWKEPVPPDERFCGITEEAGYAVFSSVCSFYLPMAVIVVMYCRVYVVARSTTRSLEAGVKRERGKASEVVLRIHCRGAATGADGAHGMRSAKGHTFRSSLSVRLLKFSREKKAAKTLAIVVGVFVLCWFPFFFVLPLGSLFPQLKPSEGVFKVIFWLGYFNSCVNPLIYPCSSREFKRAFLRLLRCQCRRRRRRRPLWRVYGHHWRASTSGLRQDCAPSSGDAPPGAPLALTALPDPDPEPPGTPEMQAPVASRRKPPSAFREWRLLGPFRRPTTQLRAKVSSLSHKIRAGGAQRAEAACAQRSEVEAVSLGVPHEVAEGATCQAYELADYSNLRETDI

[7] = target: T2, Alpha-2A adrenergic receptor (Homo sapiens) (UniProt P08913); test: ALPHA2A/H Eurofins-Panlabs selectivity data (BI); conditions: Compound concentration 10.0 uM
T2 sequence (whole entry): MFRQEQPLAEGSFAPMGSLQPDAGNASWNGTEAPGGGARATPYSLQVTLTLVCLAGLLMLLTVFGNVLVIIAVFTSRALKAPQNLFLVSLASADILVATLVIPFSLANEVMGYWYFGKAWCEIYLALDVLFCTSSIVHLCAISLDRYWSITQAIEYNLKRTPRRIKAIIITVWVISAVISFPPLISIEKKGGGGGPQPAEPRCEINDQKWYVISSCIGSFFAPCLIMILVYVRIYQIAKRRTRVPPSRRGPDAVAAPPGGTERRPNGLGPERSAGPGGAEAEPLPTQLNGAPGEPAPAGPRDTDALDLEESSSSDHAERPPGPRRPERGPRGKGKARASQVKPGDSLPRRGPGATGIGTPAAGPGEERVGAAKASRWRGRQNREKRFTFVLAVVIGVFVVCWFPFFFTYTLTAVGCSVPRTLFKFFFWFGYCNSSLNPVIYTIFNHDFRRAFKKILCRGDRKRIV

[8] = target: B1 bradykinin receptor (Homo sapiens) (UniProt P46663); test: B1/H Eurofins-Panlabs selectivity data (BI); conditions: Compound concentration 10.0 uM
[9] = target: Voltage-dependent L-type calcium channel subunit alpha-1C (diltiazem site) (Rattus norvegicus, UniProt P22002); test: CA+/DILSI/RA Eurofins-Panlabs selectivity data (BI); conditions: compound concentration 10 uM, read-out: % Ctrl
[10] = target: D(1A) dopamine receptor (Homo sapiens) (UniProt P21728); test: D1/HU Eurofins-Panlabs selectivity data (BI); conditions: Compound concentration 10.0 uM
[11] = target: T3, D(4) dopamine receptor (Homo sapiens) (UniProt P21917); test: D4.2/H Eurofins-Panlabs selectivity data (BI); conditions: Compound concentration 10.0 uM
T3 sequence (whole entry): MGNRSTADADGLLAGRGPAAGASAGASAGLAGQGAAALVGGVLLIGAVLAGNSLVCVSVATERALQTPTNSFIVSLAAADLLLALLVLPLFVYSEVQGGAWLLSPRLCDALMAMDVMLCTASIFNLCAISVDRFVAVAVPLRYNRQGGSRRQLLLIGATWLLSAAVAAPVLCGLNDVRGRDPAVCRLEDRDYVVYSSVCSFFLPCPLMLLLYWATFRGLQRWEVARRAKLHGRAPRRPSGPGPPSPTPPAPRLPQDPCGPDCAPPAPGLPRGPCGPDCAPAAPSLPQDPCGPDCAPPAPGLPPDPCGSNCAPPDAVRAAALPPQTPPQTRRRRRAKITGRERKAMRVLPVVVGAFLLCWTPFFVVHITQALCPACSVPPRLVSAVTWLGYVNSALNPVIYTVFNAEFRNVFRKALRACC

[12] = target: Sodium-dependent dopamine transporter (Homo sapiens, UniProt Q01959); test: DATRANS/H Eurofins-Panlabs selectivity data (BI); conditions: Compound concentration 10.0 uM
[13] = target: Histamine H1 receptor (Homo sapiens) (UniProt P35367); test: H1/H Eurofins-Panlabs selectivity data (BI); conditions: Compound concentration 10.0 uM
[14] = target: Glutamate NMDA receptor (Rattus norvegicus) (UniProt P35439+Q00959+Q00960+Q00961+Q62645+Q8VHN2+Q9R1M7); test: NMDAAGSI/RA Eurofins-Panlabs selectivity data (BI); type: protein-complex assay; conditions: filed as agonist, Compound concentration 10.0 uM
[15] = target: Glutamate receptor ionotropic, NMDA 1 (Rattus norvegicus) (UniProt P35439); test: NMDAGLSI/RA Eurofins-Panlabs selectivity data (BI); conditions: Compound concentration 10.0 uM
[16] = target: 3',5'-cyclic-AMP phosphodiesterase 4A (Rattus norvegicus) (UniProt P54748); test: ROLIPRAM/R Eurofins-Panlabs selectivity data (BI); conditions: Compound concentration 10.0 uM
[17] = target: Sigma intracellular receptor 2 (Homo sapiens) (UniProt Q5BJF2); test: SIGMA2/R Eurofins-Panlabs selectivity data (BI); conditions: Rattus norvegicus; Compound concentration 10.0 uM
[18] = target: Thyroid hormone receptor alpha (Rattus norvegicus) (UniProt P63059); test: THYROID HORM Eurofins-Panlabs selectivity data (BI); conditions: Compound concentration 10.0 uM
[19] = target: Neuropeptide Y receptor type 1 (Homo sapiens) (UniProt P25929); test: Y1/HU Eurofins-Panlabs selectivity data (BI); conditions: Compound concentration 10.0 uM
[20] = target: Neuropeptide Y receptor type 2 (Homo sapiens) (UniProt P49146); test: Y2/HU Eurofins-Panlabs selectivity data (BI); conditions: Compound concentration 10.0 uM
[21] = target: Kappa-type opioid receptor (Homo sapiens) (UniProt P41145); conditions: Compound concentration 10.0 uM
[22] = target: ATP-sensitive inward rectifier potassium channel 1 isoform X1 (Mesocricetus auratus) (UniProt A0A1U8CU73); conditions: Compound concentration 10.0 uM
[23] = target: Glutamate receptor ionotropic, NMDA 2A (Rattus norvegicus) (UniProt Q00959); conditions: Compound concentration 10.0 uM
[24] = Rat platelet swelling inhibition (rPSA) assay

D(1A) dopamine receptor (Homo sapiens), sequence (P21728 whole entry): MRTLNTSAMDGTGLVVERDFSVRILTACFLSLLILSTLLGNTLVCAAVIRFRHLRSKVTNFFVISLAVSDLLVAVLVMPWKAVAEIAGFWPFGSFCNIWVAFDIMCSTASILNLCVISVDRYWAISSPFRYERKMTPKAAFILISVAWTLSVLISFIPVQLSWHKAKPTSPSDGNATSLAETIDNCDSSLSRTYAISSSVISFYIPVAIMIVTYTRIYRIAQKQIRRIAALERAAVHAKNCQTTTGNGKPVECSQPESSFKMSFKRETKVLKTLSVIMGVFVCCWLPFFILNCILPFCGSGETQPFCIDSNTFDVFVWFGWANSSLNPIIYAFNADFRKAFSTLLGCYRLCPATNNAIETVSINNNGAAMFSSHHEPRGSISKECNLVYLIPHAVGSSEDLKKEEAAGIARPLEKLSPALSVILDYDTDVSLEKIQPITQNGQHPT
MAP/microtubule affinity-regulating kinase 3 (Homo sapiens), sequence (P27448 whole entry, looked up): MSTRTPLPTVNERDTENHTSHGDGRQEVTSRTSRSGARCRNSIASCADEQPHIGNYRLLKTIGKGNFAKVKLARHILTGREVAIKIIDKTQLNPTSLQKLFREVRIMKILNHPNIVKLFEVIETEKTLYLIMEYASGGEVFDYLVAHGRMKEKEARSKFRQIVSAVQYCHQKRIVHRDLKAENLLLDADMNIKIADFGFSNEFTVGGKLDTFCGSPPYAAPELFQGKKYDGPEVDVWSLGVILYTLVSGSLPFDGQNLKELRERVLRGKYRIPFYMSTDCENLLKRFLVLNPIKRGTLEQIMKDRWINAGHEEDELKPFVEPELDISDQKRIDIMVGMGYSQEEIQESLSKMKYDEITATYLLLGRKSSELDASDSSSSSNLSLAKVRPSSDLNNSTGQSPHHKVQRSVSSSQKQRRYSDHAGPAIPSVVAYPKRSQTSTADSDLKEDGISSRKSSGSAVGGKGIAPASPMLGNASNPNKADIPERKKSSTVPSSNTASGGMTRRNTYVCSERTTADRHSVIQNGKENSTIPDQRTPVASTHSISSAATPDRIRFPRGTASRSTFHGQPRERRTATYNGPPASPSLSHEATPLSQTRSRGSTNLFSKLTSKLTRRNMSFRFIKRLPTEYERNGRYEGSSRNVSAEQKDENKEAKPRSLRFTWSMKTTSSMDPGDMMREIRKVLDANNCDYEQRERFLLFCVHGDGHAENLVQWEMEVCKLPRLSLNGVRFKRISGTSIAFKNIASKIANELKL
3',5'-cyclic-AMP phosphodiesterase 4A (Rattus norvegicus), sequence (P54748 whole entry): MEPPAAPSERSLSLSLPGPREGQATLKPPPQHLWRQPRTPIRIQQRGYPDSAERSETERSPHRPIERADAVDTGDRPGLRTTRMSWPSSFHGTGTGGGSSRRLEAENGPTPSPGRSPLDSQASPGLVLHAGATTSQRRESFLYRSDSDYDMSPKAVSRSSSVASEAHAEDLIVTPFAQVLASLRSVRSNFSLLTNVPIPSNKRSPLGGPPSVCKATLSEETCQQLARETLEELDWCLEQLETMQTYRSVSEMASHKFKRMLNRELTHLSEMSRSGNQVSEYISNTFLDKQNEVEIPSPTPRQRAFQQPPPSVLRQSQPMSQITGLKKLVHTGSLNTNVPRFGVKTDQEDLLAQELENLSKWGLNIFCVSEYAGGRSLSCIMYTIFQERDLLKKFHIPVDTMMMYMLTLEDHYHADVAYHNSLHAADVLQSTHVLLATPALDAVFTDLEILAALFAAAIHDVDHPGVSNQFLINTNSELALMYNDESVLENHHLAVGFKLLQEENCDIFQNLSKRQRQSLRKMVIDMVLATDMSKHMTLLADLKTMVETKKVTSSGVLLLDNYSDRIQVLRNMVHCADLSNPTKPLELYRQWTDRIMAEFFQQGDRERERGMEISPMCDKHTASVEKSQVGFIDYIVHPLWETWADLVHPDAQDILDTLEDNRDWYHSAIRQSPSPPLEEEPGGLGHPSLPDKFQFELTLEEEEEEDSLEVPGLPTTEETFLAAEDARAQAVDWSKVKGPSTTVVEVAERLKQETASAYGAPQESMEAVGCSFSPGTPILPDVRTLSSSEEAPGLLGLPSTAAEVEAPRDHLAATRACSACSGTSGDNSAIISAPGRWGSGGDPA
ATP-sensitive inward rectifier potassium channel 1 isoform X1 (Mesocricetus auratus), sequence (A0A1U8CU73 as listed by the source): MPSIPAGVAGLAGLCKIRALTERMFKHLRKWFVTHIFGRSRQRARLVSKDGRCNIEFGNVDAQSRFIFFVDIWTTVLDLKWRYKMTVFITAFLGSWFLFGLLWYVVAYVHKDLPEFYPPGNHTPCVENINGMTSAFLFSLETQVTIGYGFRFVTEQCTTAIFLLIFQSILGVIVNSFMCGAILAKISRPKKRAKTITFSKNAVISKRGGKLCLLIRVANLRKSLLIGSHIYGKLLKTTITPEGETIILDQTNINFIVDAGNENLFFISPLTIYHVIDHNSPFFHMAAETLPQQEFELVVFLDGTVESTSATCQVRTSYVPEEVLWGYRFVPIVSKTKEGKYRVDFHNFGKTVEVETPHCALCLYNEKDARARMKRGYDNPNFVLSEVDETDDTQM
Thyroid hormone receptor alpha (Rattus norvegicus), sequence (P63059 whole entry): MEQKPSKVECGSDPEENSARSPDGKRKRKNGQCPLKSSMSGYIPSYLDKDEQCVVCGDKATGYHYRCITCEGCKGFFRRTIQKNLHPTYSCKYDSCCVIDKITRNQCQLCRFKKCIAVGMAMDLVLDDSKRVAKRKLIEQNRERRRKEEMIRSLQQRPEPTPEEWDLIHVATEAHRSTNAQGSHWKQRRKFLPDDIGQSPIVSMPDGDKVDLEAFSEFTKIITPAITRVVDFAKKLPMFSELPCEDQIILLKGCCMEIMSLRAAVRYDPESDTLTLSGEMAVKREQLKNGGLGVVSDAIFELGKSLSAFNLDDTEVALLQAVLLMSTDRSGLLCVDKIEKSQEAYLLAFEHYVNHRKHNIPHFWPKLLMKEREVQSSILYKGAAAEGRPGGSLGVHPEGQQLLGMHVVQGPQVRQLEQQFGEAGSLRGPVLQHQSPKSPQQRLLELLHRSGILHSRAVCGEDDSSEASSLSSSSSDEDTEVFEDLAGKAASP
Sigma intracellular receptor 2 (Homo sapiens), sequence (Q5BJF2 whole entry): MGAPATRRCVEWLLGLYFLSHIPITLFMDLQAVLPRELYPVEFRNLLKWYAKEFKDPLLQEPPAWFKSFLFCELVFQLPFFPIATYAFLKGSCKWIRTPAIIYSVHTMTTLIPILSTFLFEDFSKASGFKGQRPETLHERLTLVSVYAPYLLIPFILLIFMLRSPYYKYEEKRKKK
Kappa-type opioid receptor (Homo sapiens), sequence (P41145 whole entry, canonical isoform): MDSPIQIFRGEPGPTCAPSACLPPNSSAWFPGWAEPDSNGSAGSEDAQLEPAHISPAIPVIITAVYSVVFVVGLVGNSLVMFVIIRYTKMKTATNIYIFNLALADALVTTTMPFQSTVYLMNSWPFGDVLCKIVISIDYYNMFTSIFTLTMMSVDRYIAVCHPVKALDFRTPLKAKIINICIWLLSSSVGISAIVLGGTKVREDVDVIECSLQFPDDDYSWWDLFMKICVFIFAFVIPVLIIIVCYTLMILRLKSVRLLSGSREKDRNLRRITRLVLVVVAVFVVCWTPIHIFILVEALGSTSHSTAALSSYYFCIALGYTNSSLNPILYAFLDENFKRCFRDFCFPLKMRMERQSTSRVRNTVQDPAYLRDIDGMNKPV
Sodium-dependent serotonin transporter (Homo sapiens), sequence (P31645 whole entry, looked up): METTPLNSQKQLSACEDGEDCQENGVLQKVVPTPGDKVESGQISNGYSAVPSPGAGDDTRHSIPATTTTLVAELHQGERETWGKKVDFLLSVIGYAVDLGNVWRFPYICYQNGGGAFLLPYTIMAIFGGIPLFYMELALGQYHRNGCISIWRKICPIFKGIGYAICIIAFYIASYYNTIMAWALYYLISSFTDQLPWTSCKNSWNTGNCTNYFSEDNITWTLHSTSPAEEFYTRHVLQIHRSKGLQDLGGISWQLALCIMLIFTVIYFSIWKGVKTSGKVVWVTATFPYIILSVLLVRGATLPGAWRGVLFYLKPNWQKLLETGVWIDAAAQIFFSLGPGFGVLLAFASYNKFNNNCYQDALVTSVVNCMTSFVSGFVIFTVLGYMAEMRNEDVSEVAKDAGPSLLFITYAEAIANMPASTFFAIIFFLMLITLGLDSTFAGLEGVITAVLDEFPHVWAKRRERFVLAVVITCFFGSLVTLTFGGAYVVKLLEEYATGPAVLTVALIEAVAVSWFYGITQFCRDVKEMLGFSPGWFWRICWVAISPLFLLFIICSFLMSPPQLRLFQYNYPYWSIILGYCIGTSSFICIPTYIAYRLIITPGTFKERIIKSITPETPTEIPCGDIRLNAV
Neuropeptide Y receptor type 2 (Homo sapiens), sequence (P49146 whole entry): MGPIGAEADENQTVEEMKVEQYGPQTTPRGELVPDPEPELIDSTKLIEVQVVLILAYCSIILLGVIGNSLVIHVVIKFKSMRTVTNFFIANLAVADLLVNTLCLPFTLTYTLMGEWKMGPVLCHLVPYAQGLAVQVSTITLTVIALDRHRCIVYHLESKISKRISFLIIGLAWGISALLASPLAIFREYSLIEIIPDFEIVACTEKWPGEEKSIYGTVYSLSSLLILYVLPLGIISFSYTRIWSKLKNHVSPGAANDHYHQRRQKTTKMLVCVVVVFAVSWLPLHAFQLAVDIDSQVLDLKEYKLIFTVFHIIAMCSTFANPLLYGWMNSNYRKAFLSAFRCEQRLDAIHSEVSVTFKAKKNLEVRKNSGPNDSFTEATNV
B1 bradykinin receptor (Homo sapiens), sequence (P46663 whole entry): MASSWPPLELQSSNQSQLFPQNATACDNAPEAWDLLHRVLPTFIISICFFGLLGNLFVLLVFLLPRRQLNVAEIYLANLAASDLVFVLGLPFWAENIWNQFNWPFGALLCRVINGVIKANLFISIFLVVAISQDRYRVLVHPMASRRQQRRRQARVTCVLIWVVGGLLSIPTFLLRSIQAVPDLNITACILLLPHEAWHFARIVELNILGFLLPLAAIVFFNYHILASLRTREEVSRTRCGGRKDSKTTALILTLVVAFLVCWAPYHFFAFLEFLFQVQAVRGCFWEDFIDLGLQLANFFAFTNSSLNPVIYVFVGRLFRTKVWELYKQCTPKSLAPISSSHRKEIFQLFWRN

CC(=O)N1CCC(c2ccc(C(=O)NC3=NCCN3)cc2C(F)(F)F)CC1 [BI 0054]
residual activity [1]: 100% | inhibition [2]: 4.8% | inhibition [3]: -0.596%

CC(=O)N1CCC(c2ccc(C(=O)NC(=N)N)cc2C(F)(F)F)CC1 [BI 9627]
residual activity [4]: 89% | residual activity [5]: 58% | residual activity [6]: 98% | residual activity [7]: 93% | residual activity [8]: 97% | activity at 10 µM [9]: 68% (not active) | residual activity [10]: 94% | residual activity [11]: 105% | residual activity [12]: 101% | residual activity [13]: 98% | residual activity [14]: 90% | residual activity [15]: 109% | residual activity [16]: 92% | residual activity [17]: 90% | residual activity [18]: 93% | residual activity [19]: 94% | residual activity [20]: 103% | inhibition [21]: 9.26% | residual activity [22]: 96% | residual activity [23]: 96% | IC50 [24]: 0.138 µM (active)
